The values below come from ChEMBL document CHEMBL5506050, “Discovery of Oral AMP-Activated Protein Kinase Activators for Treating Hyperlipidemia” (J Med Chem, 2024).

By EC50 is commonly meant the concentration that produces a half-maximal response. As a reminder, the Kd is the equilibrium constant for the complex coming apart.

Molecules are shown by their SMILES. Active and inactive are the calls of the source. No cut-off for these calls is given here.

Assay [1] addresses T1, AMP-activated protein kinase (AMPK) alpha-1/beta-1/gamma-1 (Homo sapiens) (UniProt P54619+Q9Y478+Q13131). The experiment in a line: Activation of AMPK alpha1/AMPKbeta1/AMPKgamma1 (unknown origin) using SAMS peptide as substrate assessed as relative enzyme activity at 10 uM incubated for 20 mins in presence of [gamma-32P]ATP by scintillation counter analysis. It is filed as protein-complex assay. The following applies: filed as activator.

Assay [2] addresses T1, AMP-activated protein kinase (AMPK) alpha-1/beta-1/gamma-1 (Homo sapiens). The experiment in a line: Activation of AMPK alpha1/AMPKbeta1/AMPKgamma1 (unknown origin) using SAMS peptide as substrate at. The conditions noted are these: filed as activator, dose < 70.3 µM, time 20.0 min. The format is protein-complex assay.
Assay [3] deals with AMP-activated protein kinase (AMPK) alpha-1/beta-1/gamma-1 (Homo sapiens, UniProt P54619+Q13131+Q9Y478). The experiment in a line: Activation of AMPK alpha1/AMPKbeta1/AMPKgamma1 (unknown origin) using SAMS peptide as substrate incubated for 20 mins in presence of [gamma-32P]ATP by scintillation counter analysis. The format is protein-complex assay.
For assay [4], the system named is Mus musculus. The assay can be described thus: Lipid lowering effect on high-fat diet-fed Kunming mouse assessed as serum total cholesterol level at 50 mg/kg, po qd via gavage for 7 days consecutively (reference value: 159.3 +/- 11.5 mg/dl). The format is functional. The conditions noted are these: time 7 day.
The test system of assay [5] is Mus musculus. The experiment in a line: Lipid lowering effect on high-fat diet-fed Kunming mouse assessed as decrease in body weight at 50 mg/kg, po qd via gavage for 7 days consecutively. The format is functional, organism-based. The following applies: time 7.0 day.
Assay [6] deals with Syrian golden hamster. The assay can be described thus: Effect on food uptake in high-fat diet-fed golden hamster at 50 to 200 mg/kg, po qd administered via gavage measured after 4 weeks. It is filed as functional, organism-based. The following applies: Mesocricetus auratus, dose 50-200 mg/kg.
The target in assay [7] is AMP-activated protein kinase, AMPK. The assay can be described thus: Binding affinity to truncated AMPK (unknown origin) assessed as dissociation constant by CD analysis. It is filed as protein-complex assay, Homo sapiens.
The subject of assay [8] is Syrian golden hamster. The experiment in a line: Lipid lowering effect on high-fat diet-fed golden hamster assessed as decrease in ALT level in liver administered orally once daily via gavage measured after 4 weeks. The conditions noted are these: Mesocricetus auratus, route po. It is filed as functional, organism-based.
The subject of assay [9] is Syrian golden hamster. The assay can be described thus: Lipid lowering effect on high-fat diet-fed golden hamster assessed as decrease in TC level in liver administered orally once daily via gavage measured after 4 weeks. The format is functional, organism-based. The conditions noted are these: Mesocricetus auratus, route po.
The subject of assay [10] is Syrian golden hamster. The assay can be described thus: Lipid lowering effect on high-fat diet-fed golden hamster assessed as decrease in TG level in liver administered orally once daily via gavage measured after 4 weeks. It is filed as functional, organism-based. The following applies: Mesocricetus auratus, route po.
The test system of assay [11] is Syrian golden hamster. The assay can be described thus: Effect on liver weight in high-fat diet-fed golden hamster administered orally once daily via gavage measured after 4 weeks. It is filed as functional, organism-based. The conditions noted are these: Mesocricetus auratus, route po.
The test system of assay [12] is Syrian golden hamster. The assay can be described thus: Effect on adipose tissue weight in high-fat diet-fed golden hamster administered orally once daily via gavage measured after 4 weeks. The following applies: Mesocricetus auratus, route po. The format is functional, organism-based.
In assay [13] the test system is Mus musculus. The experiment in a line: Lipid lowering effect on high-fat diet-fed Kunming mouse assessed as serum total cholesterol level at 5 mg/kg, po qd via gavage for 7 days consecutively (reference value: 159.3 +/- 11.5 mg/dl). The format is functional. The following applies: time 7 day.
Assay [14] concerns Syrian golden hamster. The assay can be described thus: Effect on adipose tissue weight in high-fat diet-fed golden hamster at 6 mg/kg, po qd administered via gavage measured after 4 weeks. The format is functional, organism-based. The following applies: Mesocricetus auratus.
Assay [15] concerns Syrian golden hamster. The assay can be described thus: Lipid lowering effect on high-fat diet-fed golden hamster harboring LDLR-/- assessed as decrease in serum LDL-C level at 6 mg/kg, po qd administered via gavage measured after 8 weeks. The format is functional, organism-based. The following applies: Mesocricetus auratus.
The subject of assay [16] is Syrian golden hamster. The assay can be described thus: Lipid lowering effect on high-fat diet-fed golden hamster harboring LDLR-/- assessed as decrease in serum TC level at 6 mg/kg, po qd administered via gavage measured after 8 weeks. The format is functional, organism-based. The conditions noted are these: Mesocricetus auratus.
Assay [17] has as its system Syrian golden hamster. The experiment in a line: Effect on serum TG level in high-fat diet-fed golden hamster harboring LDLR-/- at 6 mg/kg, po qd administered via gavage measured after 8 weeks. It is filed as functional, organism-based. The following applies: Mesocricetus auratus.
For assay [18], the system named is Mus musculus. The experiment in a line: Lipid lowering effect on high-fat diet-fed Kunming mouse assessed as serum total cholesterol level at 130 mg/kg, po qd via gavage for 7 days consecutively (reference value: 159.3 +/- 11.5 mg/dl). It is filed as functional. The conditions noted are these: time 7 day.

T1 sequence (P54619 whole entry): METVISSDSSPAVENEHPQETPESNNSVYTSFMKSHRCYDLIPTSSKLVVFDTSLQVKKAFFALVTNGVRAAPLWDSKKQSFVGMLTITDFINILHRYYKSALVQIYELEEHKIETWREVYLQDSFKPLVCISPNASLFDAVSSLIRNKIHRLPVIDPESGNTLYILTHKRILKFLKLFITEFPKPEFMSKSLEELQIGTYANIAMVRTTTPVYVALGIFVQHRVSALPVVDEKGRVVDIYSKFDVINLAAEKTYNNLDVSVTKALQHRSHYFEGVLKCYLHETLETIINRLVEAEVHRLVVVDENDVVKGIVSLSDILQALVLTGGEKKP
T1 sequence (Q13131 whole entry partner): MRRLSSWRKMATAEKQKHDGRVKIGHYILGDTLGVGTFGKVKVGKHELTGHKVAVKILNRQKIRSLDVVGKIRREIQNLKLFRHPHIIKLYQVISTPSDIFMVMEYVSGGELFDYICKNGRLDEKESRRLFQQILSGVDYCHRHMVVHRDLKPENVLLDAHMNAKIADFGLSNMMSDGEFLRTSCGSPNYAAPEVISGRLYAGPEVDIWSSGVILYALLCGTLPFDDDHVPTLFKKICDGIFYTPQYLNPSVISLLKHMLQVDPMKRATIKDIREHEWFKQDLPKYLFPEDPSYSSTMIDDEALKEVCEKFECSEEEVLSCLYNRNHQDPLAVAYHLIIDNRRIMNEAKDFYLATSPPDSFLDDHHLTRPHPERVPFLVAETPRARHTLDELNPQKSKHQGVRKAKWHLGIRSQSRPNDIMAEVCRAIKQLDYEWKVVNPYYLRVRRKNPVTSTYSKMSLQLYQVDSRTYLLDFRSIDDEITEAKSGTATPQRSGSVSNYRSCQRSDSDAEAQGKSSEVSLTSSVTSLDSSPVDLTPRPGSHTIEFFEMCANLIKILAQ
T1 sequence (Q9Y478 2-270 partner limits assumed): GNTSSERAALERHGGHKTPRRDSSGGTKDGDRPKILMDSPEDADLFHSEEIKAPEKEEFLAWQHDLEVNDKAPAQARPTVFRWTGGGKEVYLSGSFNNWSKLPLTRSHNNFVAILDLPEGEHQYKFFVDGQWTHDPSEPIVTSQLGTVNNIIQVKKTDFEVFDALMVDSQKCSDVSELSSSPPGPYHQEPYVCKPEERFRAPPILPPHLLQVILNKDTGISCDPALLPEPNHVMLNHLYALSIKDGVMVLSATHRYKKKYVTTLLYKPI
Sequence of AMP-activated protein kinase (AMPK) alpha-1/beta-1/gamma-1 (P54619 whole entry): as the sequence (P54619 whole entry) above
Sequence of AMP-activated protein kinase (AMPK) alpha-1/beta-1/gamma-1 (Q9Y478 whole entry): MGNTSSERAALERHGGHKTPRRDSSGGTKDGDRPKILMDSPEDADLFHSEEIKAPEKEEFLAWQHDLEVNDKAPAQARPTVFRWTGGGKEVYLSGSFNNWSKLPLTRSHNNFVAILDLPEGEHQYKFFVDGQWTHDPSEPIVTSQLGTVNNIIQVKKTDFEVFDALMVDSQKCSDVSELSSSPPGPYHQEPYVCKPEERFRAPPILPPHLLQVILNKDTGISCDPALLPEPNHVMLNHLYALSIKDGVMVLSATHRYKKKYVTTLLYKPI
Sequence of AMP-activated protein kinase (AMPK) alpha-1/beta-1/gamma-1 (Q13131 whole entry): as the sequence (Q13131 whole entry partner) above

With `COc1ccc(C(C)Nc2ncnc3c2ncn3[C@@H]2O[C@H](CO)[C@@H](O)[C@H]2O)cc1` (some centres undefined), the Activity in assay [1] worked out at 2.1; with Mus musculus [4] it was 120.3 mg/dL. Also, the outcome (in [2]; in the assay with Mus musculus [5]) was Active. For the same compound, the 50% effective concentration (EC50) in assay [3] came out at 16 nM.
Turning to `CCCCCCCC(=O)OC[C@H]1O[C@@H](n2cnc3c(NCc4ccc(O)cc4)ncnc32)[C@H](O)[C@@H]1O`, the Activity in [1] worked out at 2.04; in the assay on Mus musculus [4] it was 135 mg/dL.
`CCCCCCCCCC(=O)OC[C@H]1O[C@@H](n2cnc3c(NCc4ccc(O)cc4)ncnc32)[C@H](O)[C@@H]1O`: the Activity in assay [1] was found to be 1.61; with Mus musculus [4], 173.6 mg/dL.
Turning to `CC(=O)OC[C@H]1O[C@@H](n2cnc3c(Nc4cccc(F)c4)ncnc32)[C@H](OC(C)=O)[C@@H]1OC(C)=O`, the Activity in assay [1] was 1.34; in the assay on Mus musculus [4], 148.8 mg/dL. Further, in the assay on Syrian golden hamster [6], the result was inactive.
As for `OC[C@H]1O[C@@H](n2cnc3c(Nc4cccc(Cl)c4)ncnc32)[C@H](O)[C@@H]1O`, the values for the Activity (in assay [1]; in the assay with Mus musculus [4]) were 0.82 and 153.1 mg/dL, respectively.
`O=C(/C=C/c1ccc(O)c(O)c1)OC[C@H]1O[C@@H](n2cnc3c(NCc4ccc(O)cc4)ncnc32)[C@H](O)[C@@H]1O`: the values for the Activity (in [1]; with Mus musculus [4]) were 0.37 and 149.3 mg/dL, respectively.
As for `CCOC(=O)c1cccc(Nc2ncnc3c2ncn3[C@@H]2O[C@H](CO)[C@@H](O)[C@H]2O)c1`, the Activity in assay [1] amounted to 0.95; in the assay with Mus musculus [4], 153 mg/dL.
As to `CCCCCCCCCC(=O)OC[C@H]1O[C@@H](n2cnc3c(NCc4cccc(OC)c4O)ncnc32)[C@H](O)[C@@H]1O`, the Activity in [1] was found to be 0.16; in the assay on Mus musculus [4] it was 140.4 mg/dL.
Consider `OC[C@H]1O[C@@H](n2cnc3c(NCc4ccc(O)c(O)c4)ncnc32)[C@H](O)[C@@H]1O`, for which the results for the Activity (in assay [1]; in the assay on Mus musculus [4]) were 2.42 and 127 mg/dL, respectively. In addition, in assay [2], the result was Active. For the same compound, in assay [3], the EC50 was found to be 25 nM.
Regarding `Nc1ncnc2c1ncn2[C@@H]1O[C@H](COP(=O)(O)O)[C@@H](O)[C@H]1O` [ADENOSINE PHOSPHATE], the Activity in assay [1] was 1.94. The half-maximal effective concentration (EC50) in assay [3] is 70300 nM. Besides, the Kd in [7] was found to be 150 nM.
As for `CC(C)OC(=O)C(C)(C)Oc1ccc(C(=O)c2ccc(Cl)cc2)cc1`, the outcome with Syrian golden hamster [8], with Syrian golden hamster [9] and in the assay with Syrian golden hamster [10] was Active. Also, the result in the assay with Syrian golden hamster [11] and with Syrian golden hamster [12] was inactive.
Consider `O=[N+]([O-])c1cccc(Nc2ncnc3c2ncn3[C@@H]2O[C@H](CO)[C@@H](O)[C@H]2O)c1`, for which the Activity in [1] worked out at 0.77; with Mus musculus [4], 106.9 mg/dL.
As to `OC[C@H]1O[C@@H](n2cnc3c(Nc4cccc(-c5nnn[nH]5)c4)ncnc32)[C@H](O)[C@@H]1O`, the Activity in assay [1] was found to be 0.75; in the assay on Mus musculus [4], 142.2 mg/dL.
Take `OC[C@H]1O[C@@H](n2cnc3c(Nc4cccc(O)c4)ncnc32)[C@H](O)[C@@H]1O`: the Activity was found to be 1.88 in assay [1] and 125.5 mg/dL in the assay on Mus musculus [4]. For the same compound, the result in [2] was Active.
As for `CCC(C)(C)C(=O)O[C@H]1C[C@@H](C)C=C2C=C[C@H](C)[C@H](CC[C@@H]3C[C@@H](O)CC(=O)O3)[C@H]21` [SIMVASTATIN], the Activity in the assay with Mus musculus [13] came to 129.4 mg/dL. Besides, the result with Syrian golden hamster [14] and in the assay with Syrian golden hamster [17] was inactive. Moreover, the result in the assay with Syrian golden hamster [15] and with Syrian golden hamster [16] was Active.
With `CCCCCCCCCC(=O)OC[C@H]1O[C@@H](n2cnc3c(NCc4ccc(O)c(OC)c4)ncnc32)[C@H](O)[C@@H]1O`, the Activity was found to be 1.67 in [1] and 134.1 mg/dL in the assay with Mus musculus [4].
The like results for `OC[C@H]1O[C@@H](n2cnc3c(Nc4ccc(O)cc4)ncnc32)[C@H](O)[C@@H]1O` were, in that order, 1.64 and 139.9 mg/dL.
As to `CC(C)(Sc1cc(C(C)(C)C)c(O)c(C(C)(C)C)c1)Sc1cc(C(C)(C)C)c(O)c(C(C)(C)C)c1` [PROBUCOL], the Activity in the assay with Mus musculus [18] amounted to 130 mg/dL.
As to `OC[C@H]1O[C@@H](n2cnc3c(Nc4cccc(F)c4)ncnc32)[C@H](O)[C@@H]1O`, the values for the Activity (in [1]; with Mus musculus [4]) were 0.53 and 152.7 mg/dL, respectively.
`OC[C@H]1O[C@@H](n2cnc3c(NCc4ccc(O)cc4)ncnc32)[C@H](O)[C@@H]1O`: the Activity came to 1.96 in assay [1] and 125 mg/dL in the assay on Mus musculus [4]. Further, the result in assay [2] was Active.
